Laboratory results taken from publication PMC4893612 (Scientific Reports, 2016).

Legend:
Type in all cases: cell-based
[1] = tested on: OPM-2; test: MTT antiproliferative assay, OPM-2; details: Homo sapiens, 72 hours
Experimental: (§1) Cell viability was monitored by the MTT (3-(4,5-dimethylthiazol-2-yl)-2,5-diphenyltetrazolium bromide) assay. For the MTT assay, cells were suspended at 5 × 10^5 cells/ml, and 100 μl aliquots were dispended into 96-well microtiter plates and exposed to drugs as described using DMSO control. At the end of incubations, 10 μl of a stock solution of 5 mg/ml MTT (3-(4,5-dimethylthiazol-2-yl)-2,5-diphenyltetrazolium bromide), was added into each well, and the plates were incubated 4 hours at 37 °C. Formazan crystals were dissolved with 100 μl of 10% SDS/10 mM HCl solution overnight at 37 °C. Since MTT assays are affected by mitochondrial activity, and since OXPHOS is affected by VLX1570 (unpublished observation), we used the acid phosphatase method[49] to determine cell viability in some experiments. After washing twice with PBS, cells were lysed in 100 μl of 0.1 M sodium acetate, 0,1% Triton X-100, p-nitrophenylphosphate (Pierce Biotechnology Inc, Rockford, IL) and incubated for 90 min at 37 °C. At the end of the incubation, 10 μl NaOH was added to each well and A405 was determined.

[2] = tested on: OPM-2-BZ^R; test: MTT antiproliferative assay, OPM-2-BZR; details: Homo sapiens, OPM-2-BZ^R (bortezomib resistant), 72 hours
Experimental: as §1

[3] = tested on: KMS-11; test: MTT antiproliferative assay, KMS-11; details: Homo sapiens, 72 hours
Experimental: as §1

[4] = tested on: RPMI8226; test: MTT antiproliferative assay, RPMI8226; details: Homo sapiens, RPMI-8226, 72 hours
Experimental: as §1

[5] = molecular target: USP14 (Homo sapiens, UniProt P54578); test: Cellular thermal shift assay (CETSA) in OPM-2 cells; parameters: endogenous in cells; host or cells: OPM-2 multiple myeloma cells; details: 1 hour
Experimental: For CETSA, the same amount of cells as one sample was treated with required condition and collected as described. Each sample was suspended in PBS supplemented with protease inhibitors after they were washed in PBS. And then these samples were heated at 51, 53, or 55 °C for 3 min. Immediately after heating, tubes were removed and incubated at room temperature for 3 min, and then snap-frozen in liquid nitrogen. Samples were freeze-thawed twice and centrifuged at 20,000 g for 20 min at +4 °C and supernatants were analysed by Western-blotting.

USP14, sequence (P54578 whole entry): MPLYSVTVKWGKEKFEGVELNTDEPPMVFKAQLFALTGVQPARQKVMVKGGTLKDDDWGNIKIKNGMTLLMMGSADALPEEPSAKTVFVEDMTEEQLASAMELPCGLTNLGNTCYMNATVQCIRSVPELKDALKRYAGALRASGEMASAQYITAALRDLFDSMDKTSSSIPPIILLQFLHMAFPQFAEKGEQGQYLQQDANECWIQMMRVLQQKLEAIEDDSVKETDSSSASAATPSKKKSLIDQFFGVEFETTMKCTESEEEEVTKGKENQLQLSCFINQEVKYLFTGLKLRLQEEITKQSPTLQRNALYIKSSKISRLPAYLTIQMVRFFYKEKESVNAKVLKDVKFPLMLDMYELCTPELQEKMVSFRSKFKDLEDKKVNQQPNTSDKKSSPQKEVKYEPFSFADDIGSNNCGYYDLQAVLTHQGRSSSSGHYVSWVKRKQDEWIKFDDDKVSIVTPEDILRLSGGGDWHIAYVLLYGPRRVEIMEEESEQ

thermostabilization of USP14 ([5]; 5 μM)	Structure (SMILES)	IC50 [1]	IC50 [2]	IC50 [3]	IC50 [4]	thermostabilization of USP14 ([5]; 1 μM)
–	C=CC(=O)N1C/C(=C\c2ccc([N+](=O)[O-])cc2)C(=O)/C(=C/c2ccc([N+](=O)[O-])cc2)C1 [b-AP15]	160 ± 3 nM	268 ± 12 nM	83 ± 3 nM	150 ± 14 nM	induced thermostabilization
–	CC(C)C[C@H](NC(=O)[C@H](Cc1ccccc1)NC(=O)c1cnccn1)B(O)O [bortezomib]	32 ± 1 nM	204 ± 10 nM	67 ± 3 nM	84 ± 5 nM	–
induced thermostabilization	CCC[C@H](NC(=O)/C(C#N)=C/c1cccc(Br)n1)c1ccccc1 [WP1130, reference compound]	–	–	–	–	–
